“Also recorded” adds a separate entry of the source. Bridge positions count the residues as written; N and C are the ends. Peptide text beside a SMILES is read from it. * marks the point of attachment. FITC = O=C1OC2(c3ccc(O)cc3Oc3cc(O)ccc32)c2ccc(NC(=S)*)cc21
Assays:
[1] = system: diabetic wounds of db/db mice; experiment: Example 5 wound dressings on full-thickness excisional diabetic wounds; type: in vivo
Protocol: After three days post-wound assay on db/db mice, the wounded tissues were collected and lysed. The protein concentrations were quantified by Bradford assay. The samples were tested using a Proteome Profiler Mouse Angiogenesis Array kit (R&D Systems) and a Mouse Cytokine Array kit (R&D Systems). The intensities of the dots on the membranes in the kits were quantified using Image Lab software. Eight-week-old, female db/db mice were used. Carprofen tablets (1/4 tablet per mouse) were given orally 48 hours before surgery and continued for seven days after the surgery as an analgesic. One day before surgery, the blood glucose levels of the mice were tested with a glucometer to confirm they were above 300 mg/dL. The mice were anesthetized by isoflurane inhalation, and the dorsal surface was thoroughly shaved. Then a 5-mm diameter biopsy punch (VWR) was used to create two symmetric full-thickness wounds on the back of each mouse. Next, 100 μL of liquid wound dressing, with or without 50 μg/mL of PTβ[…], was applied topically to the wound sites. The mice were observed every other day, and digital photographs of the wounds, with a ruler at the side, were acquired by a digital camera. Wound sizes were calculated using Image J. For in vitro tests, protein lysates were collected from HDFs. Pre-cooled cell scrapers were used to detach the cells, and the cells were re-suspended in RIPA lysis buffer with the inhibitor cocktail. For in vivo tests, wound skin tissues were washed three times with pre-cooled DPBS, dissected into small pieces, and re-suspended in RIPA lysis buffer containing protease and phosphatase inhibitors. […] After centrifugation at 12,000 g for 20 min, the supernatants were collected, and protein concentrations were measured using a Bradford protein assay kit (Bio-rad). […] Immunoblots were then washed with PBST and detected with a WesternBright HRP substrate detection kit (Advansta). […] The epidermal thickness was calculated from the MTS images in the wounded region. […] Images were acquired by Olympus confocal microscope and analyzed using ImageJ.

HDFs = experiment: mRNA expression (RT-PCR), HDFs; type: cell-based, human; details: high glucose and TGFβ1
Protocol: To determine the mRNA expression of the cells (HDFs, HaCaTs, and HAECs) treated with TGFβ1 (10 ng/ml) or TGFβ1 (10 ng/ml)/PTβR2I (10 μg/mL) under high glucose conditions, RNA was extracted using Trizol (Invitrogen) and reverse transcribed using a cDNA synthesis kit (Applied Biosystems). Gene expression was performed by real-time RT-PCR, using Maxima SYBR Green/Fluorescein Master Mix (Thermofisher) and selected primer pairs, shown in Table 1 below. β-actin served as the housekeeping gene. The ΔΔCt method was used for data analysis.

TβR2 on HDFs = molecular target: T1, TβR2 on HDFs (Homo sapiens, UniProt P37173); experiment: PTβR2I binding and competitive binding with TGFβ1 on HDFs (IF anti-TβR2, FITC intensity); type: cell-based; details: 48 hours
T1 construct: host or cells: human dermal fibroblasts (HDFs)
Protocol: To test PTβR2I binding to cells, HDFs (Lonza) were seeded on type I collagen-coated cover glasses and inserted in a 6-well plate. After 24 hours, the following treatments were added into the wells: 1) PTβR2I solution (10 μg/mL) for 48 hours; 2) PTβR2I solution (10 μg/mL) for 24 hours, and then TGFβ1 (10 ng/ml) for another 24 hours; 3) TGFβ1 (10 ng/mL) for 24 hours, and then PTβR2I (10 μg/mL) for another 24 hours; and 4) both PTβR2I (10 μg/mL) and TGFβ1 (10 ng/ml) for 48 hours. Control wells contained HDF-seeded cover glasses without added PTβR2I or TGFβ1, and incubated for 48 hours. After the treatment, cells were fixed by 4% paraformaldehyde and blocked with 10% goat serum in Dulbecco's phosphate-buffered saline (DPBS). Primary antibody mouse anti-TβR2 (1:300, Santa Cruz) that was diluted in DPBS containing 3% BSA was incubated with the cells overnight at 4° C. The cells were washed three times with DPBS. A secondary antibody Alexa Fluro-647 (1:300, Fisher Scientific) was then applied for 2 h at room temperature, followed by incubating with DAPI (Millipore-Sigma) for five minutes.
To validate the above results, the fluorescence intensity of PTβR2I bound to the HDFs was measured for each treatment. Briefly, HDFs (Lonza) were seeded on type I collagen-coated 96-well black microplates. […] The fluorescence intensity was measured using the same microplate reader.

HAECs = experiment: Endothelial cell lumen formation in 3D collagen gel; type: cell-based, human; details: high glucose and TGFβ1
Protocol: A 3D collagen gel model was used to evaluate endothelial cell lumen formation under high glucose and TGFβ1 conditions. Briefly, the collagen gel was formed by mixing 4 mg/ml of rat tail type I collagen solution (Life Technologies), FBS, DMEM, and NaOH. Then 500 μL of the mixture was transferred to a 48-well plate and placed in a 37° C. incubator for 30 minutes to allow gelation. HAECs were then seeded into the collagen gel at a density of 2×10^4 cells/well. TGFβ1 (10 ng/ml) or TGFβ1 (10 ng/ml)/PTβR2I (10 μg/mL) was then added. After three days of culturing, cells were stained with F-actin (Abcam, ab176753) and DAPI (Millipore-Sigma). The constructs were imaged by
Olympus FV1200 confocal microscopy with z-stack mode. The lumen density was calculated from the images.

[2] = system: human aortic endothelial cells (HAEC); experiment: Cytotoxicity of PTβR2I on endothelial cells; type: cell-based; parameters: dose or concentration left out as unconfirmed

T1 sequence (P37173 23-567): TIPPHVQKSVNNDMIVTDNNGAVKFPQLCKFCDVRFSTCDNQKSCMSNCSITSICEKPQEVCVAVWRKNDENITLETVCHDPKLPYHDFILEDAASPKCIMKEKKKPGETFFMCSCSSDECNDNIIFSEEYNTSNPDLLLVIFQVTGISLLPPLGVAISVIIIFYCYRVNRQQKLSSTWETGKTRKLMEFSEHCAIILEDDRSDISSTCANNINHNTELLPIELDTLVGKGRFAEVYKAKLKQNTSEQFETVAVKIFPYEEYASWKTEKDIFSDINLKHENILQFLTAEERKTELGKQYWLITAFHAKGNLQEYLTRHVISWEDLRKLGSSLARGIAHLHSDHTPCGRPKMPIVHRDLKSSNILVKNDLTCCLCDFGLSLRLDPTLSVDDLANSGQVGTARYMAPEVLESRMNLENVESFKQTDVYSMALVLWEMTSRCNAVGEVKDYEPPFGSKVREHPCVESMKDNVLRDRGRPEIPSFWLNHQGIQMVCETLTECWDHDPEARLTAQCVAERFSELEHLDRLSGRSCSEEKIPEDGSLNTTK

CC(C)C[C@@H]1NC(=O)CNC(=O)[C@@H](NC(=O)[C@@H](N)CCC(=O)O)CSSC[C@@H](C(=O)N[C@@H](CCCCNC(=S)Nc2ccc3c(c2)C(=O)OC32c3ccc(O)cc3Oc3cc(O)ccc32)C(=O)O)NC(=O)[C@H](CC(C)C)NC(=O)[C@H](CCCNC(=N)N)NC(=O)[C@H](Cc2c[nH]c3ccccc23)NC(=O)[C@H](C(C)C)NC(=O)[C@H](CCCNC(=N)N)NC(=O)[C@H](CC(=O)O)NC(=O)[C@@H]2CCCN2C(=O)[C@H](CCCNC(=N)N)NC(=O)CNC(=O)[C@H](C(C)C)NC(=O)[C@@H]2CCCN2C(=O)[C@H](CC(C)C)NC1=O [PTβR2I, ECGLLPVGRPDRVWRLCK-FITC] (H-ECGLLPVGRPDRVWRLCK(FITC)-OH; disulfide 2-17; N-terminus and C-terminus assumed)
expression of p-Smad2/3 in wounded skin ([1]; day 3): downregulated
expressions of p-Smad2/3 and α-SMA in wounded skin ([1]; day 8): without compromising
expression of p-p38 in wounded skin ([1]; days 3 and 8, vs Gel group): downregulated; also recorded: continued to downregulate
IGF1 expression (HDFs): significantly upregulated
IL1B mRNA expression (HDFs): significantly reduced
IL6 mRNA expression (HDFs): significantly reduced
TNFA mRNA expression (HDFs): significantly reduced
fluorescent intensities of FITC-labeled PTβR2I whichever of PTβR2I or TGFβ1 bound first (TβR2 on HDFs): consistent
lumen density (HAECs): significantly increased the lumen density
cell viability [2]: no decrease in viability
